Experimental data published in ChEMBL document CHEMBL1122392, “C4-substituted 1-beta-D-ribofuranosylpyrazolo[3,4-d]pyrimidines as adenosine agonist analogues” (J Med Chem, 1983).

What was measured:
Adenosine receptor = Adenosine receptor (Rattus norvegicus, UniProt P29276+P25099+P30543+P28647); assay: Displacement of [3H]CHA from rat brain adenosine receptor
[1] = molecular target: Adenosine receptor (Rattus norvegicus) (UniProt P29276+P25099+P30543+P28647); assay: Displacement of [3H]CHA from rat brain adenosine receptor at 10e-4 M
Sequence of Adenosine receptor (Rattus norvegicus) (P25099 whole entry, looked up): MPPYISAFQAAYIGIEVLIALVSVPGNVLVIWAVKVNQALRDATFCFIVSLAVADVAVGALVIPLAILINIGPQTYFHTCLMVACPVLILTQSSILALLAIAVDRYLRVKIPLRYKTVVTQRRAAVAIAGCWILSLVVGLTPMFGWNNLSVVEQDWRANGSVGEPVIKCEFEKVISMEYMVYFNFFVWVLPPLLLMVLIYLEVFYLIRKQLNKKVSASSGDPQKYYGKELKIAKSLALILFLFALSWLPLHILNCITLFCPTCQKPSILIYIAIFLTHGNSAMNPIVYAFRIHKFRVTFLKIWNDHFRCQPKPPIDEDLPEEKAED
Sequence of Adenosine receptor (Rattus norvegicus) (P28647 whole entry, looked up): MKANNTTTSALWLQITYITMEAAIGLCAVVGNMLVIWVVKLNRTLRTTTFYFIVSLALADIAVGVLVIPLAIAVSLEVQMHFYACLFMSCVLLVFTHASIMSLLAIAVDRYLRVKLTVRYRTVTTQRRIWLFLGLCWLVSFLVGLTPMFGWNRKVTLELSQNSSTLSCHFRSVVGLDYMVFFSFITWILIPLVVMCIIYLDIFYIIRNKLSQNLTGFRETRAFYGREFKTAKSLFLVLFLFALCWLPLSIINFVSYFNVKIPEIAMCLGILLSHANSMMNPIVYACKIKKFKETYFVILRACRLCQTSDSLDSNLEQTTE
Sequence of Adenosine receptor (Rattus norvegicus) (P29276 whole entry, looked up): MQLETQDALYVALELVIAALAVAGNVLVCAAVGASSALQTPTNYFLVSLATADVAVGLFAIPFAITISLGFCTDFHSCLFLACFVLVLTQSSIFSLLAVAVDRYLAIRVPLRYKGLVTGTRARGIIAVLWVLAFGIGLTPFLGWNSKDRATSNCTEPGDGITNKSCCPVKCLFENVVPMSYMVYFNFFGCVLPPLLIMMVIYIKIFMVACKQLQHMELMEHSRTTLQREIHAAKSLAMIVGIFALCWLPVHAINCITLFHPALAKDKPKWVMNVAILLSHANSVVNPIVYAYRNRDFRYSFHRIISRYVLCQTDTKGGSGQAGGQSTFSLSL
Sequence of Adenosine receptor (Rattus norvegicus) (P30543 whole entry, looked up): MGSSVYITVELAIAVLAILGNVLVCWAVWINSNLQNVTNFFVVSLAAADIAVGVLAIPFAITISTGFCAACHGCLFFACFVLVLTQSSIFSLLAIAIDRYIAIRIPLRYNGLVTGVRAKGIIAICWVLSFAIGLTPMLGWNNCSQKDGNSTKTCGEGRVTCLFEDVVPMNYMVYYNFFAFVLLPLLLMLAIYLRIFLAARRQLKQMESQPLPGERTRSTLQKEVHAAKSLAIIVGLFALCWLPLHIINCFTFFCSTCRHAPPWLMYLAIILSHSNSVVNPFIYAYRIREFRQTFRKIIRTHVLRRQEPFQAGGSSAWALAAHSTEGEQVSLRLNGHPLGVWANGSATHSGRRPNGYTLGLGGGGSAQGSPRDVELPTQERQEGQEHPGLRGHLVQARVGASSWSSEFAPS

| Compound | IC50 (Adenosine receptor) [µM] | inhibition [1] [%] |
| --- | --- | --- |
| CCCNc1ncnc2c1cnn2C1O[C@H](CO)[C@@H](O)[C@H]1O (stereo not given in full) | 76.5 |  |
| C[C@@H](Cc1ccccc1)Nc1ncnc2c1cnn2[C@@H]1O[C@H](CO)[C@@H](O)[C@H]1O (stereo in doubt; 1) |  | 47 |
| C[C@@H](Cc1ccccc1)Nc1ncnc2c1cnn2[C@@H]1O[C@H](CO)[C@@H](O)[C@H]1O (stereo in doubt) |  | 31 |
| OC[C@H]1OC(n2ncc3c(NC4CCCCC4)ncnc32)[C@H](O)[C@@H]1O (stereo not given in full) | 20.2 |  |
| CCCNc1ncnc2c1ncn2C1O[C@H](CO)[C@@H](O)[C@H]1O (stereo not given in full) | 0.004 |  |
